Patent US6288091A, “Antiherpes virus compounds and methods for their preparation and use” (Boehringer Ingelheim Ltd., priority 1999, dated 2001)

Tests used:
HSV-1 helicase-primase = biological target: T1, HSV-1 helicase-primase (Human herpesvirus 1, UniProt P10189+P10236); assay: HSV-1 DNA-dependent ATPase assay (inhibition of HSV-1 helicase-primase); format: biochemical
T1 construct: made in house; host or cells: Sf21 insect cells triply infected with recombinant baculoviruses (UL5, UL8, UL52)
From the text: A) HSV-1 DNA-Dependent ATP Assay (an in Vitro Assay Based on the Inhibition of HSV-1 Helicase-primase).
HSV-1 helicase-primase holoenzyme was produced in triply infected Sf21 cells using recombinant baculoviruses expressing the UL5, UL8 and UL52 helicase-primase subunits, as described by S. Dracheva et al., J. Biol. Chem. 1995, 270, 14148. The crude enzyme was purified by ammonium sulfate precipitation, Source 15Q® chromatography and Sephacryl® S-300 HR gel filtration (both purification systems can be obtained from Pharmacia Biotech Inc., Montreal, Quebec, Canada), see S. Dracheva et al., supra.
The DNA-dependent ATPase assay, described by J. J. Crute et al., Nucleic Acids Res. 1988, 16, 6585, was modified and used to evaluate the capability of the compounds of Group 1-formula 1 to inhibit HSV-1 helicase-primase activity. The reaction mixtures (80 μL each) contained 40 mM 4-(2-hydroxyethyl)-1-piperazineethanesulfonic acid (HEPES, pH 7.5), 10% (v/v) glycerol, 5.5 mM MgCl2, 1 mM DL-dithiothreitol (DTT), 50 μg/mL acetylated bovine serum albumin, 3.3% (v/v) DMSO, 4 mM ATP, 25 μM single-stranded M13 DNA hybridized to double-tailed 68-mer oligonucleotide and 3 μg/mL HSV-1 helicase-primase. After incubation for 20 min at 34°, formation of inorganic phosphate from hydrolysis of ATP was monitored spectrophotometrically at 650 nm using acidic ammonium molybdate/malachite green reagent, P. A. Lanzetta et al., Anal. Biochem. 1979, 100, 95. DNA-dependent ATPase activity was calculated from the net absorbance change in the presence and absence of inhibition.

HSV-1 strain F or KOS = assay: Inhibition of herpes simplex virus (HSV-1) replication in cell culture (BHK-21 cells, glycoprotein C ELISA); format: cell-based
Procedure: B) Inhibition of Herpes Simplex Virus (HSV-1) Replication in Cell Culture
BHK-21 cells clone 13 (ATCC CCL10) were incubated for two days in 850 cm^2 roller bottles (2×10^7 cells/bottle) with A-MEM medium (Gibco Canada Inc., Burlington, Ontario, Canada) supplemented with 8% (v/v) fetal bovine serum (FBS, Gibco Canada, Inc.). The cells were trypsinized and then 3,000 cells in 100 μL of fresh medium were transferred into each well of a 96-well microtiter plate. The cells were incubated at […] for a period of 3 days to reach a density of 50,000 cells per well. The cells were washed twice with 100 μL of α-MEM supplemented with 2% heat inactivated FBS and incubated for 1-2 hours in 100 μL of the same medium.
Thereafter, the cells were infected with HSV-1 strain F or KOS (multiplicity of infection =0.05 PFU/cell) in 50 μL of α-MEM supplemented with 2% heat inactivated FBS. Following one hour of virus absorption at 37°, the medium was removed and the cells were washed with α-MEM supplemented with 2% heat inactivated FBS (2×100 μL). The cells were incubated with or without 100 μL of the appropriate concentration of test reagent in α-MEM medium supplemented with 2% heat inactivated FBS. After 24 hours of incubation at 37°, the extent of viral replication was determined by an ELISA assay; for instance, the following assay that detects the late glycoprotein C of HSV-1.
Cells were fixed in the microtiter plate with 100 μL of 0.063% glutaraldehyde in phosphate buffered saline for 30 min at room temperature. The microtiter plate was then washed once with casein blocking solution and blocked with 200 μL of the same solution for one hour at room temperature. Thereafter, 100 μL of mAb C11 recognizing the glycoprotein C of HSV-1 (see E. Trybala et al., Journal of General Virology, 1994, 75, 743) was added to each well for two hours at room temperature. The plate was washed three times with phosphate buffered saline containing 0.05% polyoxyethylene (20) sorbitan monooleate. The cells were incubated with 100 μL of sheep anti-mouse IgG horseradish peroxidase for one hour at room temperature in the dark.
The plate was washed three times with 200 μL of the above-noted phosphate buffer saline preparation, and then once with 0.1 M sodium citrate (pH 4.5). Thereafter, 100 μL of orthophenylenediamine dihydrochloride (OPD, Gibco, Canada Inc.) was added to each well. The plate was agitated on a microplate shaker for 30 min in the dark. Color development was monitored at 450 nm using a microplate spectrophotometer.
SAS was used to calculate % inhibition of viral replication and to generate EC50 values.

[1] = Human alphaherpesvirus 1, BHK-21, Group 1 Table 1 entries

T1 sequence (P10192 whole entry): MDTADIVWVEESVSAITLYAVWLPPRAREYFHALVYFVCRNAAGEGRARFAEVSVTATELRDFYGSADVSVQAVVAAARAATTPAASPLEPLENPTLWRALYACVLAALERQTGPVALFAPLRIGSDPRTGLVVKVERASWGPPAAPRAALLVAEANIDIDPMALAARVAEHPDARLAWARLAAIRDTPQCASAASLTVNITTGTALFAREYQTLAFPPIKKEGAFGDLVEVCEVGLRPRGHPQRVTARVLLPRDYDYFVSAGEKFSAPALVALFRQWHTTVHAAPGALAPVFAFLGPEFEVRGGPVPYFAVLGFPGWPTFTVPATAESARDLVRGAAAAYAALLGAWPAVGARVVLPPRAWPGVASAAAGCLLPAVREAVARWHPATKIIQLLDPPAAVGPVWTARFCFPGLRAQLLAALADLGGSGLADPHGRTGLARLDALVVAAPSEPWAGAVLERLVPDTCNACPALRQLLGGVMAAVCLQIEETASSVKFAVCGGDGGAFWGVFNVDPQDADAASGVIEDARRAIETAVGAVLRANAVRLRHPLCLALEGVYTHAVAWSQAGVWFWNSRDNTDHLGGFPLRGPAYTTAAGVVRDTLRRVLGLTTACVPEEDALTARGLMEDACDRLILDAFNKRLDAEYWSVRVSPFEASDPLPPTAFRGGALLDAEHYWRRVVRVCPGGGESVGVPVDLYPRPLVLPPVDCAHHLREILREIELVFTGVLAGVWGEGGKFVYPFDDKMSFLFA
T1 sequence (P10236 whole entry): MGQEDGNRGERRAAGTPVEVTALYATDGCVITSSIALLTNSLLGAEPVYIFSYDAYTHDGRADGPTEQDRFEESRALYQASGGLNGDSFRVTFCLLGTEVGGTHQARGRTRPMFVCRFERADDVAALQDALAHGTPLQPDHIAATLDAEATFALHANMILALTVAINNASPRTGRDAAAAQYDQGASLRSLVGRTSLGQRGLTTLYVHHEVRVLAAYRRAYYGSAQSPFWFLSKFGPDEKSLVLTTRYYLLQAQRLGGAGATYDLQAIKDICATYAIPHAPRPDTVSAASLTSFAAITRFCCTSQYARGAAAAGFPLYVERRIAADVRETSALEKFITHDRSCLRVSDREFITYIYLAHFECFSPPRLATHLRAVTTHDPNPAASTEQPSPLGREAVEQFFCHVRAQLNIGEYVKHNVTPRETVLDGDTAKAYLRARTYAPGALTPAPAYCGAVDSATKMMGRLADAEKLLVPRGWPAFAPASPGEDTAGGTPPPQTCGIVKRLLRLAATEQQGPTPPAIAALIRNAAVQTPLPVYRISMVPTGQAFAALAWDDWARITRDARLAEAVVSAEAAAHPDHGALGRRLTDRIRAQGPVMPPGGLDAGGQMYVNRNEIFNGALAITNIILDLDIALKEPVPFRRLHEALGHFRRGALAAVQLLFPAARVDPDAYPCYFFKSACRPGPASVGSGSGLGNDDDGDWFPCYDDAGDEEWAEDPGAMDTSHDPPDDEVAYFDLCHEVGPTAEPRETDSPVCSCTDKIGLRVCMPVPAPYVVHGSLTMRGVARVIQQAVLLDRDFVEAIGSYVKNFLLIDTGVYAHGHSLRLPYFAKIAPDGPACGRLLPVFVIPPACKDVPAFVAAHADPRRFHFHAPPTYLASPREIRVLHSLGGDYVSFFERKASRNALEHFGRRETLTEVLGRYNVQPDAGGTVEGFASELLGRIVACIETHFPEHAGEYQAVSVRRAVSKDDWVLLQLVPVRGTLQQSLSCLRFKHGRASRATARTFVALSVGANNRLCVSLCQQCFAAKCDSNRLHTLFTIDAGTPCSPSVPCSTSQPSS
T1 sequence (P10189 whole entry): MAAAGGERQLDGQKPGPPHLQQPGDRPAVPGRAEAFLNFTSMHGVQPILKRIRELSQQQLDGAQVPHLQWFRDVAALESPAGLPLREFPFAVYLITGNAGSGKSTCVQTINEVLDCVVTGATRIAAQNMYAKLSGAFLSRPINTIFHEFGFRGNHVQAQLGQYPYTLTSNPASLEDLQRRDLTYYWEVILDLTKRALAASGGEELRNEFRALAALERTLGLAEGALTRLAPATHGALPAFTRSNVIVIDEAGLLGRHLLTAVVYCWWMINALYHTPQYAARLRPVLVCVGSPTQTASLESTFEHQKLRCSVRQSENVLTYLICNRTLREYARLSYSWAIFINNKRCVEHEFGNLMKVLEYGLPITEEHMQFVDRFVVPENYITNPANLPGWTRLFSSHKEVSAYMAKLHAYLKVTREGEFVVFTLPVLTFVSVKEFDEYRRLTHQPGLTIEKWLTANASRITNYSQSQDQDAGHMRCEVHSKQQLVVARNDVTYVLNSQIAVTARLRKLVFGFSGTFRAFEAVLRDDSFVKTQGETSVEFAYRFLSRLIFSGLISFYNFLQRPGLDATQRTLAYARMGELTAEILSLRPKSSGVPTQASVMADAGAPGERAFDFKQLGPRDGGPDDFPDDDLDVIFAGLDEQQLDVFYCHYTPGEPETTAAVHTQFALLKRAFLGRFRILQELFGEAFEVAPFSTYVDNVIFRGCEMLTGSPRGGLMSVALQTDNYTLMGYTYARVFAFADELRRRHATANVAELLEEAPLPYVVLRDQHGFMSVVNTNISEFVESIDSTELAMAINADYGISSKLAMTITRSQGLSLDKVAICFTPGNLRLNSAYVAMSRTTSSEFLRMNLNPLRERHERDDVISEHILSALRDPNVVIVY

IC50 (HSV-1 helicase-primase; Group 1 Table 1 entries) [nM] | EC50 (HSV-1 strain F or KOS; [1]) [nM] | SMILES | also measured
5400 | 42000 | Nc1nc(-c2ccc(NC(=O)CNCc3ccc(Cl)cc3)cc2)cs1 [Example 5] | –
19000 | 18000 | Cc1ccc(CNCC(=O)Nc2ccc(-c3csc(N)n3)cc2)cc1 [Example 6] | –
– | – | CNc1nc(-c2ccc(NC(=O)CNCc3ccccc3)cc2)cs1 [Example 7] | EC50 (HSV-1 strain F or KOS; Human alphaherpesvirus 1, BHK-21, Group 1 Table 3 entries): 4100 nM
48000 | 7000 | COc1ccc(CNCC(=O)Nc2ccc(-c3csc(N)n3)cc2)cc1 [Example 7] | –
~5000 | – | Nc1nc(-c2ccc(NC(=O)CNCc3cccc(F)c3)cc2)cs1 [Example 9] | –
1800 | 4000 | Nc1nc(-c2ccc(NC(=O)CN(Cc3ccccc3F)Cc3ccccc3F)cc2)cs1 [Example 17] | –
400 | 100 | Nc1nc(-c2ccc(NC(=O)CN(Cc3cccc(F)c3)Cc3cccc(F)c3)cc2)cs1 [Example 18] | –
– | – | Nc1nc(-c2ccc(NC(=O)[C@H](Cc3ccccc3)NC(=O)OCc3ccccc3)cc2)cs1 [Example 23] | IC50 (HSV-1 helicase-primase; Group 1 Table 5 entries): 600 nM; EC50 (HSV-1 strain F or KOS; Human alphaherpesvirus 1, BHK-21, Group 1 Table 5 entries): 94 nM
– | 95 | Nc1nc(-c2ccc(NC(=O)CN(Cc3ccc(Cl)cc3)C(=O)c3ccncc3)cc2)cs1 [Example 55] | –
– | 950 | Nc1nc(-c2ccc(NC(=O)CN(CC3CCCCC3)C(=O)c3ccncc3)cc2)cs1 [Example 57] | –
300 | 15 | Nc1nc(-c2ccc(NC(=O)CN(Cc3ccc(F)cc3)C(=O)c3ccccc3)cc2)cs1 [Example 59] | –
– | 1600 | CC(C)(C)OC(=O)N1CCC(C(=O)N(CC(=O)Nc2ccc(-c3csc(N)n3)cc2)CC2CCCCC2)CC1 [Example 61] | –
840 | – | [N-]=[N+]=Nc1ccc(C(=O)N(CC(=O)Nc2ccc(-c3csc(N)n3)cc2)Cc2ccc(Cl)cc2)cc1 [Example 65] | –
– | 50 | Nc1nc(-c2ccc(NC(=O)CN(CCc3ccccc3)C(=O)C3CCCCC3)cc2)cs1 [Example 68] | –
– | 180 | Nc1nc(-c2ccc(NC(=O)CN(Cc3ccc(Cl)cc3)C(=O)CC3CCCCC3)cc2)cs1 [Example 69] | –
570 | 160 | Nc1nc(-c2ccc(NC(=O)CN(Cc3ccc(Cl)c(I)c3)C(=O)c3ccncc3)cc2)cs1 [Example 70] | –
280 | 120 | [N-]=[N+]=Nc1ccc(C(=O)N(CC(=O)Nc2ccc(-c3csc(N)n3)cc2)Cc2ccccc2)cc1 [Example 74] | –
– | 240 | Nc1nc(-c2ccc(NC(=O)CN(CC3CCCCC3)C(=O)CC3CCCC3)cc2)cs1 [Example 75] | –
– | 180 | [N-]=[N+]=Nc1ccc(C(=O)N(CC(=O)Nc2ccc(-c3csc(N)n3)cc2)Cc2ccncc2)cc1 [Example 78] | –
– | 180 | CC(C)CN(CC(=O)Nc1ccc(-c2csc(N)n2)cc1)C(=O)C1CCCCC1 [Example 81] | –
– | 6 | Nc1nc(-c2ccc(NC(=O)CN(Cc3ccc(F)cc3)C(=O)C3CCCCC3)cc2)cs1 [Example 83] | –
– | 88 | CC(C)COC(=O)N(CC(=O)Nc1ccc(-c2csc(N)n2)cc1)Cc1ccccc1 [Example 86] | –
– | 34 | CC(C)(C)NC(=O)N(CC(=O)Nc1ccc(-c2csc(N)n2)cc1)Cc1ccccc1 [Example 92] | –
– | 65 | CN(C(=O)N(CC(=O)Nc1ccc(-c2csc(N)n2)cc1)Cc1ccccc1)C(C)(C)C [Example 94] | –
– | 37 | Nc1nc(-c2ccc(NC(=O)CN(Cc3ccccc3)C(=O)N3CCOCC3)cc2)cs1 [Example 95] | –

IC50 (HSV-1 helicase-primase; Group 1 Table 1 entries) [nM] | EC50 (HSV-1 strain F or KOS; [1]) [nM] | SMILES | also measured
– | 120 | Nc1nc(-c2ccc(NC(=O)CN(Cc3ccccc3)S(=O)(=O)N3CCOCC3)cc2)cs1 [Example 96] | –
1600 | 670 | CN(C)c1cccc2c(S(=O)(=O)N(CC(=O)Nc3ccc(-c4csc(N)n4)cc3)Cc3ccncc3)cccc12 [Example 99] | –
– | 850 | CC(C)(C)OC(=O)N(CC(=O)Nc1ccc(-c2csc(N)n2)cc1)CC1CCCCC1 [Example 100] | –
– | 11 | Cc1ccccc1CN(CC(=O)Nc1ccc(-c2csc(N)n2)cc1)C(=O)c1ccncc1 [Example 102] | –
– | 290 | C[C@@H](c1ccccc1)N(CC(=O)Nc1ccc(-c2csc(N)n2)cc1)C(=O)NC(C)(C)C [Example 105] | –
390 | 19 | Nc1nc(-c2ccc(NC(=O)CN(Cc3ccccc3Cl)C(=O)c3ccncc3)cc2)cs1 [Example 145] | –
150 | 5 | Nc1nc(-c2ccc(NC(=O)CN(Cc3cccc(Cl)c3)C(=O)c3ccncc3)cc2)cs1 [Example 146] | –
350 | 22 | Nc1nc(-c2ccc(NC(=O)CN(Cc3cccc(F)c3)C(=O)c3ccncc3)cc2)cs1 [Example 147] | –
380 | 25 | COc1ccccc1CN(CC(=O)Nc1ccc(-c2csc(N)n2)cc1)C(=O)c1ccncc1 [Example 148] | –
450 | 55 | COc1cccc(CN(CC(=O)Nc2ccc(-c3csc(N)n3)cc2)C(=O)c2ccncc2)c1 [Example 149] | –
2000 | 120 | COc1ccc(CN(CC(=O)Nc2ccc(-c3csc(N)n3)cc2)C(=O)c2ccncc2)cc1 [Example 150] | –
76 | 11 | Cc1cccc(CN(CC(=O)Nc2ccc(-c3csc(N)n3)cc2)C(=O)c2ccncc2)c1 [Example 151] | –
1600 | 77 | Cc1ccc(CN(CC(=O)Nc2ccc(-c3csc(N)n3)cc2)C(=O)c2ccncc2)cc1 [Example 152] | –
1900 | 190 | Nc1nc(-c2ccc(NC(=O)CN(Cc3c(F)cccc3F)C(=O)c3ccncc3)cc2)cs1 [Example 153] | –
41 | 5 | Cc1cccc(CN(CC(=O)Nc2ccc(-c3csc(N)n3)cc2)C(=O)c2ccncc2)c1C [Example 154] | –
200 | 11 | Cc1ccc(C)c(CN(CC(=O)Nc2ccc(-c3csc(N)n3)cc2)C(=O)c2ccncc2)c1 [Example 155] | –
3500 | 420 | Cc1cccc(C)c1CN(CC(=O)Nc1ccc(-c2csc(N)n2)cc1)C(=O)c1ccncc1 [Example 156] | –
40 | 10 | Cc1cc(C)cc(CN(CC(=O)Nc2ccc(-c3csc(N)n3)cc2)C(=O)c2ccncc2)c1 [Example 157] | –
1800 | 440 | Nc1nc(-c2ccc(NC(=O)CN(CCc3ccccn3)C(=O)c3ccncc3)cc2)cs1 [Example 158] | –
1700 | 210 | Nc1nc(-c2ccc(NC(=O)CN(Cc3cccs3)C(=O)c3ccncc3)cc2)cs1 [Example 159] | –
680 | 51 | Nc1nc(-c2ccc(NC(=O)CN(CCc3cccs3)C(=O)c3ccncc3)cc2)cs1 [Example 160] | –
3400 | 530 | Nc1nc(-c2ccc(NC(=O)CN(Cc3cscn3)C(=O)c3ccncc3)cc2)cs1 [Example 161] | –
2500 | 69 | Cc1nc(CN(CC(=O)Nc2ccc(-c3csc(N)n3)cc2)C(=O)c2ccncc2)cs1 [Example 162] | –
2400 | 680 | Nc1nc(-c2ccc(NC(=O)CN(CCc3nccs3)C(=O)c3ccncc3)cc2)cs1 [Example 163] | –
